Laboratory results reported in patent publication US20090246134A1, “COMPOSITIONS AND METHODS FOR MODULATING GATED ION CHANNELS” (PainCeptor Pharma Corporation, priority 2007, published 2009).

Assays:
[1] = molecular target: T1, ASIC1a (Homo sapiens, UniProt P78348); test: Whole cell patch clamp in heterologous expression system (CHO cells); format: cell-based; set-up: expressed in transfected cells; host or cells: CHO cells
T1 sequence (P78348 1-528): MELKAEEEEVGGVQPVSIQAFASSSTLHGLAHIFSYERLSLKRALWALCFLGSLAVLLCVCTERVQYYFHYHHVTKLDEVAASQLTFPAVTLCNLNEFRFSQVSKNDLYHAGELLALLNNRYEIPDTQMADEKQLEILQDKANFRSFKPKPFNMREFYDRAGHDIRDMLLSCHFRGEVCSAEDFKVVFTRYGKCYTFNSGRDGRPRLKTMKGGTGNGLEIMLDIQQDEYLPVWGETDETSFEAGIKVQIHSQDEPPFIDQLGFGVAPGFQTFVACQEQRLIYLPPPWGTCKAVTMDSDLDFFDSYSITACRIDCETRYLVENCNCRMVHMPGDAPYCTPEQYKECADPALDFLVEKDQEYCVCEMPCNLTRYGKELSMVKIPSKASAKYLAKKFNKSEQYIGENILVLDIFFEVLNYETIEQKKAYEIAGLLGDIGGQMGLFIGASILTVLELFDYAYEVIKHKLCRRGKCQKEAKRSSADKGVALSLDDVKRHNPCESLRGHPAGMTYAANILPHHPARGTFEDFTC
Description: Another example of an in vitro assessment method consists of using mammalian heterologous expression systems, which are known to the skilled in the art, and include a variety of mammalian cell lines such as COS, HEK, e.g., HEK293 and/or CHO, cells. Cell lines are transfected with gated ion channel(s) and used to perform electrophysiology as follows:
All experiments are performed at room temperature (20-25° C.) in voltage clamp using conventional whole cell patch clamp methods (Neher, E., et al. (1978) Pfluegers Arch 375:219-228).
The amplifier used is the EPC-9 (HEKA-electronics, Lambrect, Germany) run by a Macintosh G3 computer via an ITC-16 interface. Experimental conditions are set with the Pulse-software accompanying the amplifier. Data is low pass filtered and sampled directly to hard-disk at a rate of 3 times the cut-off frequency.
Pipettes are pulled from borosilicate glass using a horizontal electrode puller (Zeitz-lnstrumente, Augsburg, Germany). The pipette resistances are 2-3 MOhms in the salt solutions used in these experiments. The pipette electrode is a chloridized silver wire, and the reference is a silver chloride pellet electrode (In Vivo Metric, Healdsburg, USA) fixed to the experimental chamber. The electrodes are zeroed with the open pipette in the bath just prior to sealing.
Coverslips with the cells are transferred to a 15 μl experimental chamber mounted on the stage of an inverted microscope (IMT-2, Olympus) supplied with Nomarski optics. Cells are continuously superfused with extracellular saline at a rate of 2.5 ml/min. After giga-seal formation, the whole cell configuration is attained by suction. The cells are held at a holding voltage of −60 mV and at the start of each experiment the current is continuously measured for 45 s to ensure a stable baseline. […] Current amplitudes are measured at the peak of the responses, and effect of the compounds is calculated as the amplitude at compound equilibrium divided by the amplitude of the current evoked by the pulse just before the compound was included. […]

[2] = molecular target: T1, ASIC1a; test: Calcium-imaging (calcium mobilization, FLIPR) assay in ASIC1a expressing HEK293 cells; format: cell-based; set-up: host or cells: HEK293; settings: n=3-7, compounds not radiolabelled
Description: ASIC1a expressing HEK293 cells are grown in culture medium (DMEM with 10% FBS), in polystyrene culture flasks ([…]) at 37° C. in a humidified atmosphere of 5% CO2. Confluency of cells should be 80-90% on day of plating. Cells are rinsed with 10 ml of PBS and re-suspended by addition of culture medium and trituration with a 25 ml pipette.
The cells are seeded at a density of approximately 1×10^6 cells/ml (100 μl/well) in black-walled, clear bottom, 96-well plates pre-treated with 10 mg/l poly-D-lysin (75 μl/well for ≧30 min). Plated cells were allowed to proliferate for 24 h before loading with dye.
Fluo-4/AM (1 mg, Molecular Probes) is dissolved in 912 μl DMSO. The Fluo-4/AM stock solution (1 mM) is diluted with culture medium to a final concentration of 2 μM (loading solution).
The culture medium is aspirated from the wells, and 50 μl of the Fluo-4/AM loading solution is added to each well. The cells are incubated at 37° C. for 30 min.
After the loading period, the loading solution is aspirated and the cells are washed twice with 100 μl modified Assay Buffer (145 mM NaCl, 5 mM KCl, 5 mM CaCl2, 1 mM MgCl2, 10 mM HEPES, pH 7.4) to remove extracellular dye. Following the second wash, 100 μl modified Assay Buffer is added to each well and the fluorescence is measured in FLIPR™ or FlexStation™ (Molecular Devices, USA), or any other suitable equipment known to the skilled in the art.
Temperature: Room temperature (20-22° C.)
First addition: 50 μl test solution at a rate of 30 μl/sec and a starting height of […]
Second addition: 50 μl MES solution (20 mM, 5 mM final concentration) at a rate of 35 μl/sec and a starting height of 150 μl.
Reading intervals: pre-incubation—10 sec×7 and 3 sec×3 antagonist phase—3 sec×17 and 10 sec×12
Addition plates (compound test plate and MES plate) are placed on the right and left positions in the FLIPR tray, respectively. Cell plates are placed in the middle position and the ASIC1a program is effectuated. FLIPR will then take the appropriate measurements in accordance with the interval settings above. Fluorescence obtained after stimulation is corrected for the mean basal fluorescence (in modified Assay Buffer).
The MES-induced peak calcium response, in the presence of test substance, is expressed relatively to the MES response alone. Test substances that block the MES-induced calcium response are re-tested in triplicates. Confirmed hits are picked for further characterization by performing full dose-response curves to determine potency of each hit compound as represented by the IC50 values (i.e., the concentration of the test substance which inhibits 50% of the MES-induced calcium response).
It is noted that the compounds below are not radiolabelled.

For `COc1ccc(F)cc1-c1cc2c(c3c1CCN(C)C3)NC(=O)C2=NO` [Compound A, 5-(5-fluoro-2-methoxyphenyl)-6,7,8,9-tetrahydro-3-(hydroxyimino)-8-methyl-1H-pyrrolo[3,2-h]isoquinoline-2(3H)-one], the “human ASIC1a pH-evoked response” value [1] was “reduce the human ASIC1a pH-evoked response in CHO cells in a dose-dependent manner”, the “potency relative to amiloride on human ASIC1a pH-evoked response” value [1] was “about 100 fold” and the IC50 [2] was 700 nM.
